The record followed here is publication PMC9225045, “Purification and Characterization of a Novel α-L-Rhamnosidase from Papiliotrema laurentii ZJU-L07 and Its Application in Production of Icariin from Epimedin C” (Journal of Fungi, 2022).

Assay [1] relates to T1, α-L-rhamnosidase from P. laurentii ZJU-L07.
T1 construct: gene EC 3.2.1.40; native intracellular enzyme purified from cells of the soil isolate (strain mutagenized by gamma rays and nitrosoguanidine); 100 kDa by SDS-PAGE
Nature of the assay: p-nitrophenol release at […] nm, Lineweaver-Burk. Format: biochemical, Papiliotrema laurentii. The following applies: pH 7.0 citric acid-Na2HPO4, 55 °C (standard assay); 2.0-10.0 mM substrate.

The test system of assay [2] is T2, α-L-rhamnosidase from P. laurentii ZJU-L07.
T2 construct: gene EC 3.2.1.40
As to conditions: 1.0-5.0 mM substrate; pH and temperature of the kinetic assay not stated separately. The text has this: Lineweaver-Burk; HPLC for epimedin C and icariin on α-L-rhamnosidase from P. laurentii ZJU-L07 | When epimedin C was used as a nature substrate to determine the kinetic parameters

Where two headings read alike, the source gives them in different places.

For orientation: Km means the concentration of substrate that gives half-maximal velocity.

With `C[C@@H]1O[C@@H](Oc2ccc([N+](=O)[O-])cc2)[C@H](O)[C@H](O)[C@H]1O` [p-nitrophenyl-α-L-rhamnopyranoside], the Km in assay [1] came out at 1380 µM.
For the compound `COc1ccc(-c2oc3c(CC=C(C)C)c(O[C@@H]4O[C@H](CO)[C@@H](O)[C@H](O)[C@H]4O)cc(O)c3c(=O)c2O[C@@H]2O[C@@H](C)[C@H](O)[C@@H](O)[C@H]2O[C@@H]2O[C@@H](C)[C@H](O)[C@@H](O)[C@H]2O)cc1` [epimedin C], the Km in assay [2] stood at 3280 µM.
